In one assay the target is T1, K-RAS G12C (Homo sapiens, UniProt P01116, G12C).
T1 construct: His tag; purchased Stratech
The assay is described as follows: Compound depletion assay, K-RAS G12C. The format is binding. Particulars: G12C protein 20 μM, compound 8 μM, 25° C. The procedure, abridged: (§1)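 His-tagged K-RAS (20 μM) in 20 mM HEPES pH 7.5, 150 mM NaCl, 1 mM MgCl2 incubated with 8 μM compound (final) at 25 °C with agitation. At 0, 30, 180, 360, 1440 min, samples were acid/acetonitrile-quenched and remaining free compound quantified by LC-MS/MS against propranolol, as percent of time zero.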

Another assay addresses T2, K-RAS G12D (Homo sapiens, UniProt P01116, G12D).
T2 construct: His tag; purchased Stratech
The assay is described as follows: Compound depletion assay, K-RAS G12D. The format is binding. Particulars: G12D protein 20 μM, compound 8 μM, 25° C. The method in brief: as §1

We go through 4 compounds from patent US12612387B2, “RAS inhibitors and methods of using the same” (Jazz Pharmaceuticals Ireland Limited, priority 2020, dated 2026).

Each structure is given as a SMILES string.

T2 sequence (P01116 1-188 isoform P01116-2 G12D): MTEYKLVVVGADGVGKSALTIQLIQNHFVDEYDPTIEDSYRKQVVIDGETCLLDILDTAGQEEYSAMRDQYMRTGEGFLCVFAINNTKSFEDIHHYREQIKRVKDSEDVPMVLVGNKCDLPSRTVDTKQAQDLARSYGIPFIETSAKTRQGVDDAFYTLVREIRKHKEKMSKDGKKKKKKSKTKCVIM
T1 sequence (P01116 1-188 isoform P01116-2 G12C): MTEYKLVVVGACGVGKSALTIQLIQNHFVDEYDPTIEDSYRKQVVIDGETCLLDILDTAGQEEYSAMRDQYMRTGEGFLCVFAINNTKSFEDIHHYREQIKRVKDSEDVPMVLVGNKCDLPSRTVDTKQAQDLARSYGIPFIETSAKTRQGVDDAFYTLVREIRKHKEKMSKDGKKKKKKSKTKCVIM

For the compound `C=CC(=O)N1CCN(c2cc(C(=O)Nc3cc(O)cc4ccccc34)nc(NC[C@@H]3CCCN3Cc3ccccc3)n2)C[C@@H]1CC#N` [Example 44, 2-[[(2S)-1-benzylpyrrolidin-2-yl]methylamino]-6-[(3S)-3-(cyanomethyl)-4-prop-2-enoyl-piperazin-1-yl]-N-(3-hydroxy-1-naphthyl)pyrimidine-4-carboxamide], at K-RAS G12C, the “30 min Category (compound remaining at timepoint)” value was “A (≥70% compound remaining at timepoint)”, the “3 hr Category (compound remaining at timepoint)” value was “B (30%-70% compound remaining at timepoint)” and the “6 hr Category (compound remaining at timepoint)” value is given as “B (30%-70% compound remaining at timepoint)”. Further, at K-RAS G12D, the “30 min Category (compound remaining at timepoint)” value was “A (≥70% compound remaining at timepoint)”, the “3 hr Category (compound remaining at timepoint)” value is “A (≥70% compound remaining at timepoint)” and the “6 hr Category (compound remaining at timepoint)” value is recorded as “A (≥70% compound remaining at timepoint)”.
For the compound `C=CC(=O)N1CCN(c2cc(C(=O)Nc3cc(O)cc4ccccc34)nc(NCC3CCCN3C)n2)C[C@@H]1CC#N` (stereo partly drawn) [Example 45, 6-[(3S)-3-(cyanomethyl)-4-prop-2-enoyl-piperazin-1-yl]-N-(3-hydroxy-1-naphthyl)-2-[(1-methylpyrrolidin-2-yl)methylamino]pyrimidine-4-carboxamide], on K-RAS G12C, the “30 min Category (compound remaining at timepoint)” value is “B (30%-70% compound remaining at timepoint)”, the “3 hr Category (compound remaining at timepoint)” value is “C (≤30% compound remaining at timepoint)” and the “6 hr Category (compound remaining at timepoint)” value is “C (≤30% compound remaining at timepoint)”. Besides, at K-RAS G12D, the “30 min Category (compound remaining at timepoint)” value is “A (≥70% compound remaining at timepoint)”, the “3 hr Category (compound remaining at timepoint)” value was “A (≥70% compound remaining at timepoint)” and the “6 hr Category (compound remaining at timepoint)” value is listed as “A (≥70% compound remaining at timepoint)”.
For the compound `C=CC(=O)N1CCN(c2cc(C(=O)Nc3cc(O)cc4ccccc34)nc(NC[C@@H]3CCCN3CCO)n2)C[C@@H]1CC#N` [Example 46, 6-[(3S)-3-(cyanomethyl)-4-prop-2-enoyl-piperazin-1-yl]-2-[[(2S)-1-(2-hydroxyethyl)pyrrolidin-2-yl]methylamino]-N-(3-hydroxy-1-naphthyl)pyrimidine-4-carboxamide], at K-RAS G12C, the “30 min Category (compound remaining at timepoint)” value is “B (30%-70% compound remaining at timepoint)”, the “3 hr Category (compound remaining at timepoint)” value is listed as “C (≤30% compound remaining at timepoint)” and the “6 hr Category (compound remaining at timepoint)” value is reported as “C (≤30% compound remaining at timepoint)”. Also, on K-RAS G12D, the “30 min Category (compound remaining at timepoint)” value is recorded as “A (≥70% compound remaining at timepoint)”, the “3 hr Category (compound remaining at timepoint)” value is recorded as “A (≥70% compound remaining at timepoint)” and the “6 hr Category (compound remaining at timepoint)” value was “A (≥70% compound remaining at timepoint)”.
Regarding `C=CC(=O)N1CCN(c2cc(C(=O)Nc3cc(O)cc4ccccc34)nc(OCCC3CCCN3C)n2)C[C@@H]1CC#N` (stereo partly drawn) [Example 47, 6-[(3S)-3-(cyanomethyl)-4-prop-2-enoyl-piperazin-1-yl]-N-(3-hydroxy-1-naphthyl)-2-[2-(1-methylpyrrolidin-2-yl)ethoxy]pyrimidine-4-carboxamide], at K-RAS G12C, the “30 min Category (compound remaining at timepoint)” value was “C (≤30% compound remaining at timepoint)”, the “3 hr Category (compound remaining at timepoint)” value is reported as “C (≤30% compound remaining at timepoint)” and the “6 hr Category (compound remaining at timepoint)” value is listed as “C (≤30% compound remaining at timepoint)”. Besides, on K-RAS G12D, the “30 min Category (compound remaining at timepoint)” value was “A (≥70% compound remaining at timepoint)”, the “3 hr Category (compound remaining at timepoint)” value is “A (≥70% compound remaining at timepoint)” and the “6 hr Category (compound remaining at timepoint)” value is given as “A (≥70% compound remaining at timepoint)”.
